Earlier results as cited in patent US20100143322A1, “USE OF INHIBITORS OF N-METHYL TRANSFERASES FOR THE THERAPY OF PARKINSON'S DISEASE” (priority 2005, published 2010).

Biological target: T1, phenylethanolamine N-methyl transferase (PNMT) (Homo sapiens, UniProt P11086)
T1 sequence (P11086 1-282): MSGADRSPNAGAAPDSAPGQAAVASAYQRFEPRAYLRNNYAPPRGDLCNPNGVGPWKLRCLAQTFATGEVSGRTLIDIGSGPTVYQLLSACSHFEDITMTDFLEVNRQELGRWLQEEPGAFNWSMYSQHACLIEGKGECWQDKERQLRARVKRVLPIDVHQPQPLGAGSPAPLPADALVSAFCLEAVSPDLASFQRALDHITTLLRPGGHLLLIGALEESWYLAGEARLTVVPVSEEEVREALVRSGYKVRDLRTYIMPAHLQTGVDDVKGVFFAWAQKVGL
Conditions: less than 2 mg of Ala-Cys-Cys, isolated from rabbit liver and purified

Ala-Cys-Cys
inhibition of the PNMT in the PNMT test: > 90%
